Patent EP2525224A1, “VDAC1-S as a cell marker” (Centre National de la Recherche Scientifique, priority 2011, dated 2012)

Columns and labels:
Format in all cases: cell-based
[1] = test system: LS174 cells; assay: Caspase 3/7 activity (Caspase-Glo 3/7); conditions: hypoxic cancer cells
Experimental: Quantification of the caspase 3/7 activity was done using a luciferin/luciferase based assay (Caspase-Glo 3/7 kit, Promega) according to the manufacture's instructions. Each condition was performed 8 times and the entire experiment was done 3 times. Significant differences are based on the Student's t test * p < 0.005. To test ABT-737 (Hickman et al., 2008, J Neurophysiol 99, 1515), LS 174 cells were cultured for 72 h in normoxia (N) or hypoxia 1% O2 (H 1 %) and ABT was then added for 24 h at different concentrations (0, 2 or 10 µM). Staurosporine (1 µg/ml) was added (+ Stau) 4 h prior to assay for caspase 3/7 activity, […]

[2] = test system: LS174 cells; assay: Immunofluorescence of cytochrome c release; conditions: with staurosporine
Experimental: Cells were grown on glass coverslips and then fixed in 3.3% paraformaldehyde for 30 min at room temperature (RT), permeabilized with 0.2% Triton X-100 for 5 min. Cells were blocked with phosphate-buffered saline (PBS) containing 0.2% gelatin, 2% bovine serum albumin for 30 min at RT, and incubated with anti-rabbit HIF-1α (1/1000 - described in "Immunoblotting"), and/or anti-mouse cyto. c (1/500 - BD Bioscience) or anti-rabbit VDAC (1/400 - Abcam) antibodies in PBS for 3 h at RT. After washing, cells were incubated in the presence of a biotinylated anti-mouse secondary antibody conjugated to Alexa 594 (1:400) or anti-rabbit secondary antibody conjugated to Alexa 488 (1:400) for 1 h at RT (Invitrogen). After washing, coverslips were mounted in Cytifluor (Amersham Biosciences), detection of the fluorescence was performed with a Leica DMR fluorescence microscope, and images were recorded using RSImage software.

[3] = test system: LS174 cells; assay: Flow cytometric analysis of mitochondrial transmembrane potential (ΔΨm) with DiOC6(3); conditions: staurosporine 1 µM for 18h
Experimental: The following fluorochromes were employed to determine mitochondrial function by cytofluorometry: 3,3'-dihexyloxacarbocyanine iodide [DiOC6(3), 50 nM (Invitrogen) for mitochondrial transmembrane potential (ΔΨm) quantification and propidium iodide (PI; 1 µg/ml (Sigma) for determination of cell viability (all from Molecular Probes). Cells were trypsinized and labeled with the fluorochromes at 37°C, followed by cytofluorometric analysis with a fluorescence-activated cell sorter (FACS) scan (Becton Dickinson). The fluorescence intensity of DiOC6 (3) (which measures ΔΨm) is plotted against the propidium iodide signal ([…]). The CellQuest software (Becton Dickinson) was used for the data analysis.

**Q.** `COc1cc([C@@H]2c3cc4c(cc3[C@@H](O[C@@H]3O[C@@H]5CO[C@@H](C)O[C@H]5[C@H](O)[C@H]3O)[C@H]3COC(=O)[C@H]23)OCO4)cc(OC)c1O` [etoposide] was tested. Which induced apoptosis [1] did it give?
**A.** resistant

**Q.** Which results are given for `CN[C@@H]1C[C@H]2O[C@@](C)([C@@H]1OC)n1c3ccccc3c3c4c(c5c6ccccc6n2c5c31)C(=O)NC4` [staurosporine]?
**A.** release of mitochondrial cytochrome c into the cytoplasm ([2]; hypoxic cells with enlarged mitochondria): do not show release of cyto. c; release of mitochondrial cytochrome c into the cytoplasm ([2]; normoxia): released mitochondrial cytochrome c (cyto. c) into the cytoplasm; induced apoptosis [1]: resistant; ΔΨm ([3]; hypoxia 1 % O2 for 72h): remained unaffected; ΔΨm ([3]; normoxia): decreased
